ChEMBL document CHEMBL1131589 (J Med Chem, 1998)

Target: Cannabinoid receptor 1 (Rattus norvegicus, UniProt P20272)
Assay: Displacement of [3H]CP-55940 binding to Cannabinoid receptor 1 in rat brain membranes
Type: cell membranes

Cannabinoid receptor 1, sequence (P20272 whole entry): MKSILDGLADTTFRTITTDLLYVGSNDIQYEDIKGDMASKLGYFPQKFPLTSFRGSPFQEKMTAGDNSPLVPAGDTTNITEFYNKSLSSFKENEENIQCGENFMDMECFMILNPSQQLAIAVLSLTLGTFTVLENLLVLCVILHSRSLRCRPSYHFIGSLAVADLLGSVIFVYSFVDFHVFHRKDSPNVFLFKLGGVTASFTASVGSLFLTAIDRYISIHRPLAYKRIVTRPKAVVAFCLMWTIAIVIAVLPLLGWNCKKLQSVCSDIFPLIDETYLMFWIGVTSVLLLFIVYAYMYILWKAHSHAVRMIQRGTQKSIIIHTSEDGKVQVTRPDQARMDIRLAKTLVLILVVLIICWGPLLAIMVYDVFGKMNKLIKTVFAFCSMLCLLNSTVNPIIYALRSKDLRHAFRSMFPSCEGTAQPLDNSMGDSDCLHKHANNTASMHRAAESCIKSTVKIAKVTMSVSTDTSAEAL

SMILES	Ki
CCCCCCC(C)(C)c1ccc([C@H]2C[C@@H](O)C[C@H]3CC[C@@H](CO)C[C@@H]32)c(O)c1	0.11 nM
CCCCCCC(C)(C)c1cc(O)c2c(c1)OC(C)(C)[C@@H]1CC=C(CO)C[C@@H]21	0.23 nM
CCCCCCC(C)(C)c1cc(O)c2c(c1)OC(C)(C)[C@H]1CC=C(CO)C[C@H]21 [DEXANABINOL]	360 nM
